From US20060223747A1, “Therapeutic agent for soft tissue sarcoma” (Fujisawa Pharmaceutical Co. Ltd., priority 2003, published 2006)

Experiments:
histone deacetylase = conditions: reported in JP-B-7-64872; Experimental Cell Research (1998) 241, 126-133; cited from earlier work
[1] = tested on: SYO-1 synovial sarcoma cell strain (SYT-SSX protein expressing); experiment: Tumor volume after subcutaneous implantation of SYO-1 cells in nude mice; format: in vivo, BALB/C/nu/nu nude mice; conditions: for antitumor activity in vivo against SYT-SSX protein expressing cells: summary statement
Protocol: Inbred male (BALB/C/nu/nu) nude mice were supplied by Charles River Japan, Inc. The animals were all fed and handled according to the Animal Test Guideline, Animal Resources Division, Advanced Science Research Center, Okayama University. FK228 was administered after 10 days from subcutaneous implantation of 10^5 cells each of the SYO-1 cell strain. The tumor volume was assumed by measuring two diameters perpendicular to each other using calipers and from the following formula (tumor volume=⅙π [(d1×d2)^3/2] (wherein d1 and d2 are two perpendicular diameters)). The dose was evaluated by intravenously administering a dilute FK228 solution (50 μl, 10% HCO60 which is polyoxyethylene (60) hydrogenated castor oil, diluted with physiological saline) at 0 mg/kg, 1.6 mg/kg or 3.2 mg/kg to 20 animals, and as a control, a 3.2 mg/kg dilute FK228 solution was intravenously injected to 7 animals free of tumor implantation. The administration was performed 3 times every 4 days, the tumor volume was also measured every 4 days, as well as after completion of the administration.

[2] = tested on: HTB93 synovial sarcoma cell strain (SW982; not expressing SYT-SSX protein); experiment: MTT cell growth assay (survival rate), HTB93 synovial sarcoma cell strain; format: cell-based; conditions: for antitumor activity against synovial sarcoma cell strain not expressing SYT-SSX protein: summary statement, HTB93 (SW982)
Protocol: An SYT-SSX protein non-expressing synovial sarcoma cell line HTB93 (purchased from ATCC: American Type Culture Collection) was cultured in DMEM (Dulbecco's modified Eagle's medium) containing 10% (v/v) fetal bovine serum (FBS), 100 U/ml penicillin and 100 μg/ml streptomycin at 37° C. under 5% CO2 environment. These cells were plated and cultured for 24 hr, detached with 0.25% (w/v) trypsin and recovered. For cell growth ability, an MTT analysis kit (Colorimetric MTT) assay for cell survival and proliferation kit of CHEMICON International, Inc.) was used. Each cell strain was plated in a 96 well microtiter plate at 2×10^3 cell/well, and after culture for 24 hr, exposed to a 0.1% (v/v) dilute ethanol solution of FK228 at a concentration distribution of 0.001 nM, 0.01 nM, 0.1 nM, 0.5 nM, 1 nM, 5 nM, 10 nM, 50 nM and 100 nM, 0.1% (v/v) ethanol as a control and the medium alone as a blank. After exposure for 24 hr, 48 hr, 72 hr and 96 hr, each culture was passed through a 570 nm filter and the absorbance was measured. All were performed with n=4.
For the results, average values of the FK228 addition sample, control and blank were taken, and using numerical values obtained by subtracting a blank value from the value of the FK228 addition sample or control, a percentage corresponding to the ratio of the numerical value of the FK228 addition sample relative to that of the control was taken as survival rate (%).

[3] = tested on: SYT-SSX protein expressing cells (HS-SY-2, YaFuSS, SYO-1); experiment: In vitro antitumor activity against SYT-SSX protein expressing cells (summary statement); format: cell-based
Excerpt: In an attempt to solve the above-mentioned problems, the present inventors have considered that, in synovial sarcoma, formation of the aforementioned complex of SYT-SSX protein, a chromatin remodeling-associated protein and histone deacetylase (HDAC)-associated protein enhances histone deacetylase activity, which in turn has an effect on the canceration, development and/or proliferation, of synovial sarcoma, and have conducted intensive studies of the effect of histone deacetylase inhibition on various synovial sarcoma cell strains (HS-SY-2, YaFuSS, SYO-1) that express SYT-SSX protein. […]

[4] = tested on: HS-SY-2 synovial sarcoma cell strain (SYT-SSX protein expressing); experiment: MTT cell growth assay, HS-SY-2 synovial sarcoma cell strain; format: cell-based; conditions: HS-SY-2 cells; FK228 0.1-100 nM; exposure 24, 48, 96 hr; FIG. 1
Excerpt: (§1) An SYT-SSX protein expressing synovial sarcoma cell line HS-SY-2 (established and kindly provided by Dr. Hiroshi Sonobe, Department of Pathology, National Fukuyama Hospital), YaFuSS (established and kindly provided by Dr. Junya Toguchida, Department of Tissue Regeneration, Institute for Frontier Medical Sciences, Kyoto University) and SYO-1 (established and kindly provided by Dr. Akira Kawai, Department of Orthopedics, Faculty of Medicine, Okayama University (now Department of Orthopedics, National Cancer Center)) were cultured in DMEM (Dulbecco's modified Eagle's medium) containing 10% (v/v) fetal bovine serum (FBS), 100 U/ml penicillin and 100 μg/ml streptomycin at 37° C. under 5% CO2 environment. These cells were plated and cultured for 24 hr, detached with 0.25% (w/v) trypsin and recovered. For cell growth ability, an MTT analysis kit (Colorimetric (MTT) assay for cell survival and proliferation kit of CHEMICON International, Inc.) was used. Each cell strain was plated in a 96 well microtiter plate at 10^3 cell/well, and after culture for 24 hr, exposed to a 0.1% (v/v) dilute ethanol solution of FK228 at a concentration distribution of 0.1 nM, 0.2 nM, 1 nM, 50 nM and 100 nM, and 0.1% (v/v) ethanol (Et-OH 0.1% in FIG. 1) as a control. After exposure for 24 hr, 48 hr and 96 hr, each culture was passed through a 570 nm filter and the absorbance was measured. […]

[5] = tested on: YaFuSS synovial sarcoma cell strain (SYT-SSX protein expressing); experiment: MTT cell growth assay, YaFuSS synovial sarcoma cell strain; format: cell-based; conditions: YaFuSS cells; FK228 0.1-100 nM; exposure 24, 48, 96 hr; FIG. 2
Excerpt: as §1

[6] = tested on: SYO-1 synovial sarcoma cell strain (SYT-SSX protein expressing); experiment: MTT cell growth assay, SYO-1 synovial sarcoma cell strain; format: cell-based; conditions: SYO-1 cells; FK228 0.1-100 nM; exposure 24, 48, 96 hr; FIG. 3
Excerpt: as §1

Structure (SMILES): C/C=C1\NC(=O)C2CSSCC/C=C/C(CCNC(C(C)C)C(=O)N2)OC(=O)C(C(C)C)NC1=O (stereo not shown) [compound A]
- histone deacetylase inhibition (histone deacetylase): selectively inhibits histone deacetylase

Structure (SMILES): CC(/C=C/C(=O)NO)=C\[C@@H](C)C(=O)c1ccc(N(C)C)cc1 [tricostatin A, Trichostatin A, reference compound]
- antitumor activity in vivo against SYT-SSX protein expressing cells [1]: potent antiturnor activity
- antitumor activity against synovial sarcoma cell strain not expressing SYT-SSX protein [2]: potent antitumor activity
- antitumor activity in vitro against SYT-SSX protein expressing cells [3]: potent antiturnor activity

Structure (SMILES): C/C=C1\NC(=O)[C@H]2CSSCC/C=C/[C@H](CC(=O)N[C@H](C(C)C)C(=O)N2)OC(=O)[C@H](C(C)C)NC1=O [FK228]
- in vitro antitumor effect [4]: showed an in vitro antitumor effect
- in vitro antitumor effect [5]: showed an in vitro antitumor effect
- in vitro antitumor effect [6]: showed an in vitro antitumor effect
- in vivo antitumor effect (tumor volume) ([1]; SYO-1 subcutaneous implant, i.v. 1.6 or 3.2 mg/kg, 3 times every 4 days, FIG. 4): showed an in vivo antitumor effect
- antitumor activity in vivo against SYT-SSX protein expressing cells [1]: potent antiturnor activity
- in vitro antitumor effect (survival rate) ([2]; HTB93 cells, FK228 0.001-100 nM, exposure 24, 48, 72, 96 hr, FIG. 5): showed an in vitro antitumor effect
- antitumor activity against synovial sarcoma cell strain not expressing SYT-SSX protein [2]: potent antitumor activity
- antitumor activity in vitro against SYT-SSX protein expressing cells [3]: potent antiturnor activity
- histone deacetylase inhibition (histone deacetylase): selectively inhibits histone deacetylase
